Data published in PubChem BioAssay AID256 (DTP/NCI, 2004).
Where “and” joins values, the source holds several entries; their conditions need not be identical. Equal entries are not always repeated. Toxic doses and inconclusive results are not listed.

Test system: CD2F1 mice, L1210 leukemia ip, survival T/C
Assay: NCI In Vivo Anticancer Drug Screen. Data for tumor model L1210 Leukemia (intraperitoneal) in CD2F1 (CDF1) mice
Details: higher = longer survival
How it was run: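 In this screen, transplantable tumors were grown in mice given either the compound or its vehicle. Results were expressed as the treated measurement relative to the control measurement.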

[1] = endpoint: mean survival time, dose: 25.0 mg/kg/injection, schedule: Q04DX002 (ip), vehicle: saline with Tween-80
[2] = endpoint: mean survival time, dose: 12.5 mg/kg/injection, schedule: Q01DX009 (ip), vehicle: other
[3] = endpoint: mean survival time, dose: 25.0 mg/kg/injection, schedule: Q01DX009 (ip), vehicle: other
[4] = endpoint: mean survival time, dose: 100.0 mg/kg/injection, schedule: Q01DX009 (ip), vehicle: other
[5] = endpoint: mean survival time, dose: 200.0 mg/kg/injection, schedule: Q01DX009 (ip), vehicle: other
[6] = endpoint: mean survival time, dose: 100.0 mg/kg/injection, schedule: Q04DX002 (ip), vehicle: saline with Tween-80
[7] = endpoint: mean survival time, dose: 200.0 mg/kg/injection, schedule: Q04DX002 (ip), vehicle: saline with Tween-80
[8] = endpoint: mean survival time, dose: 400.0 mg/kg/injection, schedule: Q04DX002 (ip), vehicle: saline with Tween-80
[9] = endpoint: mean survival time, dose: 50.0 mg/kg/injection, schedule: Q04DX002 (ip), vehicle: saline with Tween-80
[10] = endpoint: mean survival time, dose: 100.0 mg/kg/injection, schedule: Q04DX003 (ip), vehicle: saline
[11] = endpoint: mean survival time, dose: 200.0 mg/kg/injection, schedule: Q04DX003 (ip), vehicle: saline
[12] = endpoint: mean survival time, dose: 400.0 mg/kg/injection, schedule: Q04DX003 (ip), vehicle: saline
[13] = endpoint: mean survival time, dose: 100.0 mg/kg/injection, schedule: Q04DX003 (ip), vehicle: saline with Tween-80
[14] = endpoint: mean survival time, dose: 200.0 mg/kg/injection, schedule: Q04DX003 (ip), vehicle: saline with Tween-80
[15] = endpoint: mean survival time, dose: 400.0 mg/kg/injection, schedule: Q04DX003 (ip), vehicle: saline with Tween-80
[16] = endpoint: mean survival time, dose: 100.0 mg/kg/injection, schedule: Q01DX001 (ip), vehicle: saline with Tween-80
[17] = endpoint: mean survival time, dose: 200.0 mg/kg/injection, schedule: Q01DX001 (ip), vehicle: saline with Tween-80
[18] = endpoint: mean survival time, dose: 400.0 mg/kg/injection, schedule: Q01DX001 (ip), vehicle: saline with Tween-80
[19] = endpoint: mean survival time, dose: 100.0 mg/kg/injection, schedule: Q01DX001 (ip), vehicle: saline
[20] = endpoint: mean survival time, dose: 200.0 mg/kg/injection, schedule: Q01DX001 (ip), vehicle: saline
[21] = endpoint: mean survival time, dose: 400.0 mg/kg/injection, schedule: Q01DX001 (ip), vehicle: saline

Nc1n[nH]c2ccccc12
T/C (endpoint: median survival time, dose: 25.0 mg/kg/injection, schedule: Q01DX009 (ip), vehicle: acid diluted with saline): 101 % of control and 103 % of control and 105 % of control
T/C (endpoint: median survival time, dose: 50.0 mg/kg/injection, schedule: Q01DX009 (ip), vehicle: acid diluted with saline): 101 % of control and 108 % of control and 111 % of control
T/C (endpoint: median survival time, dose: 100.0 mg/kg/injection, schedule: Q01DX009 (ip), vehicle: acid diluted with saline): 107 % of control
T/C (endpoint: median survival time, dose: 200.0 mg/kg/injection, schedule: Q01DX009 (ip), vehicle: acid diluted with saline): 154 % of control and 158 % of control
T/C (endpoint: median survival time, dose: 400.0 mg/kg/injection, schedule: Q01DX009 (ip), vehicle: acid diluted with saline): 158 % of control

C[Si](C)(C)CS(=O)[O-].[C-]#[O+].[C-]#[O+].[Fe+6].[c-]1[c-][c-][cH-][c-]1
T/C (endpoint: mean survival time, dose: 12.5 mg/kg/injection, schedule: Q04DX002 (ip), vehicle: saline): 105 % of control
T/C (endpoint: mean survival time, dose: 25.0 mg/kg/injection, schedule: Q04DX002 (ip), vehicle: saline): 94 % of control
T/C (endpoint: mean survival time, dose: 50.0 mg/kg/injection, schedule: Q04DX002 (ip), vehicle: saline): 87 % of control

CC/C(=C(/CC)c1ccc(O)cc1)c1ccc(O)cc1
T/C (endpoint: median survival time, dose: 12.5 mg/kg/injection, schedule: Q01DX009 (sc), vehicle: steriod suspending solution): 114 % of control and 105 % of control
T/C (endpoint: median survival time, dose: 25.0 mg/kg/injection, schedule: Q01DX009 (sc), vehicle: steriod suspending solution): 114 % of control and 100 % of control
T/C (endpoint: median survival time, dose: 50.0 mg/kg/injection, schedule: Q01DX009 (sc), vehicle: steriod suspending solution): 114 % of control and 105 % of control
T/C (endpoint: median survival time, dose: 100.0 mg/kg/injection, schedule: Q01DX009 (sc), vehicle: steriod suspending solution): 100 % of control

CC(C)OC(=O)Nc1ccncc1
T/C [1]: 104 % of control

COc1ccc(C(=O)NCCc2ccc(OC)c(OC)c2)cc1O
T/C [2]: 100 % of control
T/C [3]: 94 % of control
T/C (endpoint: mean survival time, dose: 50.0 mg/kg/injection, schedule: Q01DX009 (ip), vehicle: other): 96 % of control
T/C [4]: 90 % of control
T/C [5]: 96 % of control

CCOC(=O)/C=C(\C)CO
T/C [6]: 88 % of control
T/C [7]: 103 % of control
T/C [8]: 103 % of control

CC1OC(C)(C)OC1C(=O)O (configuration not stated)
T/C (endpoint: mean survival time, dose: 25.0 mg/kg/injection, schedule: Q01DX009 (ip), vehicle: Klucel (hydroxypropylcellulose) (HPC)): 92 % of control
T/C (endpoint: mean survival time, dose: 50.0 mg/kg/injection, schedule: Q01DX009 (ip), vehicle: Klucel (hydroxypropylcellulose) (HPC)): 86 % of control

O=[N+]([O-])c1cc(Cl)cc2c1NP(=S)(c1ccccc1)N2 (configuration not stated)
T/C [1]: 91 % of control
T/C [9]: 102 % of control
T/C [6]: 91 % of control
T/C [7]: 98 % of control

Cc1nccc2cc3c(cc12)Cc1ccccc1-3
T/C [6]: 88 % of control
T/C [7]: 92 % of control
T/C [8]: 88 % of control

CC(Br)C(Br)CO (configuration not stated)
T/C [10]: 104 % of control
T/C [11]: 96 % of control
T/C [12]: 106 % of control

Cc1c(OCc2ccccc2)cccc1[N+](=O)[O-]
T/C [4]: 97 % of control
T/C [13]: 92 % of control
T/C [5]: 105 % of control
T/C [14]: 87 % of control
T/C (endpoint: mean survival time, dose: 400.0 mg/kg/injection, schedule: Q01DX009 (ip), vehicle: other): 112 % of control
T/C [15]: 90 % of control

COc1ccc2c(c1O)-c1c(OC)c(OC)cc3c1C(C2)N(C)CC3 (configuration not stated)
T/C [16]: 97 % of control
T/C [17]: 97 % of control
T/C [18]: 108 % of control

SC1(SC2(S)CCCCC2)CCCCC1
T/C (endpoint: mean survival time, dose: 100.0 mg/kg/injection, schedule: Q01DX009 (ip), vehicle: saline with Tween-80): 102 % of control
T/C (endpoint: mean survival time, dose: 200.0 mg/kg/injection, schedule: Q01DX009 (ip), vehicle: saline with Tween-80): 112 % of control
T/C (endpoint: mean survival time, dose: 400.0 mg/kg/injection, schedule: Q01DX009 (ip), vehicle: saline with Tween-80): 103 % of control

CC1CN(C)CCN1C (configuration not stated)
T/C (endpoint: mean survival time, dose: 100.0 mg/kg/injection, schedule: Q01DX009 (ip), vehicle: saline): 100 % of control
T/C [10]: 104 % of control
T/C (endpoint: mean survival time, dose: 200.0 mg/kg/injection, schedule: Q01DX009 (ip), vehicle: saline): 100 % of control
T/C [11]: 104 % of control
T/C (endpoint: mean survival time, dose: 400.0 mg/kg/injection, schedule: Q01DX009 (ip), vehicle: saline): 98 % of control
T/C [12]: 98 % of control

Cc1ccc2nc(-c3ccc(NC(=O)c4ccc(C(=O)Nc5ccc(-c6nc7ccc(C)cc7s6)cc5)cc4)cc3)sc2c1
T/C [19]: 89 % of control
T/C [20]: 89 % of control
T/C [21]: 86 % of control

C#CCCCCCCCCCCC1(c2ccccc2)OCCO1
T/C (endpoint: mean survival time, dose: 100.0 mg/kg/injection, schedule: Q04DX003 (ip), vehicle: Klucel (hydroxypropylcellulose) (HPC)): 94 % of control
T/C (endpoint: mean survival time, dose: 200.0 mg/kg/injection, schedule: Q04DX003 (ip), vehicle: Klucel (hydroxypropylcellulose) (HPC)): 97 % of control
T/C (endpoint: mean survival time, dose: 400.0 mg/kg/injection, schedule: Q04DX003 (ip), vehicle: Klucel (hydroxypropylcellulose) (HPC)): 95 % of control

COC(=O)c1cc2ccccc2[nH]c1=O
T/C (endpoint: mean survival time, dose: 75.0 mg/kg/injection, schedule: Q01DX001 (ip), vehicle: other): 97 % of control
T/C (endpoint: mean survival time, dose: 150.0 mg/kg/injection, schedule: Q01DX001 (ip), vehicle: other): 96 % of control
T/C (endpoint: mean survival time, dose: 300.0 mg/kg/injection, schedule: Q01DX001 (ip), vehicle: other): 97 % of control

[Co].c1ccc2c3[n-]c(c2c1)/N=c1\[n-]/c(c2ccccc12)=N\c1[n-]c(c2ccccc12)/N=c1\[n-]/c(c2ccccc12)=N\3
T/C [1]: 90 % of control
T/C [9]: 93 % of control
T/C [6]: 90 % of control

CCC1Cc2c([nH]c(=O)n(-c3ccccc3)c2=O)O1 (configuration not stated)
T/C [19]: 95 % of control
T/C [20]: 98 % of control
T/C [21]: 92 % of control

Cc1ccc(S(=O)(=O)[N-]Cl)cc1.[Cl][Pt][Cl]
T/C (endpoint: mean survival time, dose: 4.7 mg/kg/injection, schedule: Q04DX003 (ip), vehicle: saline with Tween-80): 95 % of control
T/C (endpoint: mean survival time, dose: 9.4 mg/kg/injection, schedule: Q04DX003 (ip), vehicle: saline with Tween-80): 100 % of control
T/C (endpoint: mean survival time, dose: 18.75 mg/kg/injection, schedule: Q04DX003 (ip), vehicle: saline with Tween-80): 100 % of control
T/C (endpoint: mean survival time, dose: 37.5 mg/kg/injection, schedule: Q04DX003 (ip), vehicle: saline with Tween-80): 103 % of control
T/C (endpoint: mean survival time, dose: 75.0 mg/kg/injection, schedule: Q04DX003 (ip), vehicle: saline with Tween-80): 103 % of control

CCC(CNCCCC(=O)O)(C(=O)O)C(=O)O
T/C [1]: 98 % of control
T/C [9]: 94 % of control
T/C [6]: 102 % of control

O=C1CC2C3C=CC(C12)C1C(=O)OC(=O)C31 (configuration not stated)
T/C [10]: 107 % of control
T/C [11]: 98 % of control
T/C [12]: 91 % of control

[Cl][PtH].c1ccc([PH+](c2ccccc2)c2ccccc2)cc1.c1ccc([PH+](c2ccccc2)c2ccccc2)cc1
T/C [16]: 92 % of control
T/C [17]: 92 % of control
T/C [18]: 95 % of control

OC(CC(O)(C(F)(F)F)C(F)(F)F)c1cccc(C(F)(F)F)c1 (configuration not stated)
T/C (endpoint: mean survival time, dose: 132.0 mg/kg/injection, schedule: Q04DX003 (ip), vehicle: other): 98 % of control
T/C (endpoint: mean survival time, dose: 200.0 mg/kg/injection, schedule: Q04DX003 (ip), vehicle: other): 94 % of control
T/C (endpoint: mean survival time, dose: 300.0 mg/kg/injection, schedule: Q04DX003 (ip), vehicle: other): 93 % of control

COc1ccc(CC2c3cc(OC)c(OC)cc3CCN2C(C)=O)cc1 (configuration not stated)
T/C [13]: 101 % of control
T/C [14]: 100 % of control
T/C [15]: 100 % of control

C1CCCC(NC2=NCCO2)CC1
T/C (endpoint: mean survival time, dose: 6.25 mg/kg/injection, schedule: Q04DX003 (ip), vehicle: saline with Tween-80): 98 % of control
T/C (endpoint: mean survival time, dose: 12.5 mg/kg/injection, schedule: Q04DX003 (ip), vehicle: saline with Tween-80): 97 % of control
T/C (endpoint: mean survival time, dose: 25.0 mg/kg/injection, schedule: Q04DX003 (ip), vehicle: saline with Tween-80): 98 % of control

O=C(O)Cc1cc(=O)oc2ccccc12
T/C [16]: 104 % of control
T/C [17]: 104 % of control
T/C [18]: 96 % of control

CC(C)NC(=O)c1ccc(N=NN(C)C)cc1
T/C [2]: 91 % of control and 105 % of control
T/C (endpoint: mean survival time, dose: 25.0 mg/kg/injection, schedule: Q01DX009 (ip), vehicle: DMSO): 104 % of control
T/C [3]: 119 % of control and 100 % of control
T/C (endpoint: mean survival time, dose: 50.0 mg/kg/injection, schedule: Q01DX009 (ip), vehicle: DMSO): 110 % of control
T/C [4]: 119 % of control
